Experimental data: PubChem BioAssay AID179 (DTP/NCI, 2004)
Where “and” joins values, the source holds several entries; their conditions need not be identical. Identical values can stand only once. Calls of active or inactive are those of the source.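 How the source made its calls: active means compounds giving half or more protection of infected cells from virus-caused growth loss, again on retest; inactive means the rest.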 Where a SMILES comes first, the peptide text is derived from it.

Test system: CEM cells HIV-1 protection, formazan growth assay
Assay: NCI AIDS Antiviral Assay
Conditions: for IC50: measured here: growth of uninfected CEM cells
In short: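 Soluble formazan readout of cell growth; CEM cells ± HIV-1; 5 drug concs. ≥50% protection → retest; ≥50% again = moderately active; reproducible 100% = confirmed active.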

| Compound | EC50 | IC50 | outcome |
| --- | --- | --- | --- |
| CC(=O)OC1C(COC(N)=O)OC(n2c(-c3ccc(C)cc3)cc(-c3ccccc3)c(C#N)c2=O)C(OC(C)=O)C1OC(C)=O (configuration not stated) | > 11.5 µM | > 11.5 µM | – |
| CCC1(CC=C(C)C)Oc2cccnc2-n2cccc2C1=O (configuration not stated) | > 200 µM | 117 µM | – |
| O=C1c2ccccc2C(=O)N1C/C(Cl)=C/Cl | > 200 µM | > 200 µM | – |
| CCCCN(CCCC)P(=S)(OCC)OCC | > 200 µM | > 200 µM | – |
| O=C1CC2(CCN(Cc3ccccc3)CC2)CC(=O)N1 | > 200 µM | > 200 µM | – |
| NC1CCCCC1NCCNC1CCCCC1N (configuration not stated) | > 200 µM | 178 µM | – |
| CN(C)C(=O)c1nc(CNC(=O)CN)n(-c2ccc(Cl)cc2C(=O)c2ccccc2)n1 | > 200 µM | > 200 µM | – |
| Cc1cn(C2OCC(CO)C2F)c(=O)[nH]c1=O (configuration not stated) | > 200 µM | > 200 µM | – |
| CC1CN(S(=O)(=O)c2cccc3cnccc23)CCN1 (configuration not stated) | > 126 µM | 38 µM | – |
| O=c1cn[nH]c2ccc(Br)cc12 | > 95.5 µM | > 95.5 µM | – |
| COC(=O)c1cc2c(cc1CC(Cc1ccc3c(c1)CCC3)C(=O)OC)CCC2 (configuration not stated) | > 200 µM | 126 µM | – |
| COc1ccc2c(c1)OCC(O)(c1ccccc1)C2O (configuration not stated) | > 200 µM | > 200 µM | – |
| Cc1csc(NNC(N)=O)n1 | > 200 µM | > 200 µM | – |
| NS(=O)(=O)c1nn2c(Br)c(-c3ccccc3)nc2s1 | > 200 µM | 1.78 µM | – |
| COc1cc(/C=C/c2ccc(OC)c(OC)c2)cc(OC2OC(CO)C(O)C(O)C2O)c1 (configuration not stated) | – | – | inactive |
| O=C(Nc1cccc(C(F)(F)F)c1)c1cc(Br)cc(Br)c1O | > 200 µM | 1.51 µM | – |
| CCN(CC)CCn1nc(N)c2nc3cc(Cl)ccc3nc21 | > 100 µM | 51.3 µM | – |
| C=CCn1c(-c2ccccc2)cs/c1=N\C(P(=O)(O)O)P(=O)(O)O | > 200 µM | > 200 µM | – |
| Cc1ncc([N+](=O)[O-])n1CCNC(=O)CCCn1cnc([N+](=O)[O-])n1 | > 200 µM | > 200 µM | – |
| O=C(/C=C/c1cccc(Br)c1)c1cccs1 | – | – | inactive |
| COC1OC(Cn2c(C)nc(Br)c2Br)C(O)C(O)C1O (configuration not stated) | 33.9 µM | > 200 µM | – |
| COc1ccc(S(=O)(=O)N/N=C/c2cc(I)cc([N+](=O)[O-])c2O)cc1OC | > 355 µM | 60.3 µM | – |
| Cc1ccc2nc(-c3ccc(C(C)(C)C)cc3)oc(=O)c2c1 | > 200 µM | 23.4 µM | – |

| Compound | EC50 | IC50 | outcome |
| --- | --- | --- | --- |
| Cc1cn2c(nc1=O)OC1C(O)C(CCl)OC12 (configuration not stated) | > 200 µM | > 200 µM | – |
| COc1ccc(CNc2nc3ccccc3nc2-c2cccs2)cc1OC | > 19.1 µM | 17 µM | – |
| O=C1CC(c2ccc(Cl)cc2)=Nc2ccccc2N1 | 6.31 µM | 95.5 µM | – |
| COc1cc(O)cc(O)c1C(=O)CC(Cl)(Cl)Cl | > 316 µM | 170 µM | – |
| COC(=O)C1(O)C(c2ccccc2)NC2(C)CCCC21 (configuration not stated) | > 200 µM | > 200 µM | – |
| COc1c(Cc2ccccc2O)c(O)c(Cc2cc(Cc3ccccc3O)ccc2O)c(O)c1C(=O)CCc1ccccc1 | > 60.3 µM | 21.4 µM | – |
| CS/C(C)=N/OC(=O)NCCCCNc1ccc(N=[N+]=[N-])cc1 | > 148 µM | 34.7 µM | – |
| O=c1[nH]c(=O)n(C2CC(O)C(CO)O2)cc1NN=NCCc1ccccc1 (configuration not stated) | > 200 µM | > 200 µM | – |
| CC1(C)N=C(N)N=C(N)N1c1ccc(Cl)c(Cl)c1 | > 0.01 µM | 0.00427 µM | – |
| Cc1cccc2c1Oc1cc(Cl)ccc1C2NC(=O)CN(C)C (configuration not stated) | > 77.6 µM | 72.4 µM | – |
| COc1ccc(C2NCCc3c2[nH]c2ccccc32)cc1 (configuration not stated) | – | – | inactive |
| CC(CCCC1SCC2NC(=O)NC21)C(=O)O (configuration not stated) | > 977 µM | > 977 µM | – |
| CCOC(=O)C1(C(=O)OCC)CC=C(C)CC12C(=O)Nc1ccccc12 (configuration not stated) | > 72.4 µM | > 72.4 µM | – |
| O=S1(=O)C[C@@H](NCc2ccccc2)[C@H](NCc2ccccc2)C1 | > 200 µM | > 200 µM | – |
| CCOC(=O)C1C(c2ccc3c(c2)OCO3)c2c([nH][nH]c2=O)CC1(O)OCC (configuration not stated) | > 200 µM | > 200 µM | – |
| CC(NC(=O)C(C)NC(=O)C(CC(N)=O)NC(=O)CN)C(=O)NC(CO)C(=O)NC(C)C(=O)NC(CCCN=C(N)N)C(=O)NC(CCCN=C(N)N)C(N)=O (configuration not stated) (H-GNAASARR-NH2; configuration not given here) | – | – | inactive |
| CC(=O)NC(CCCN(Cc1ccccc1)C(=O)N(C)N=O)C(=O)NCc1ccccc1 (configuration not stated) | > 112 µM | > 112 µM | – |
| Cc1ccc(/C([O-])=C(\C(=S)Nc2cccc(C)c2)[n+]2ccccc2)cc1 | – | – | inactive |
| N#Cc1c(N)sc(=S)c2c1CCCC2 | > 22.4 µM | > 22.4 µM | – |
| COC(=O)OCC1C=CC(n2cnc3c(Cl)nc(N)nc32)CC1 (configuration not stated) | > 200 µM | 31.6 µM | – |
| CCOP(=O)(OCC)C1C(=O)O[C@H]2CCCC[C@@H]12 (some centres not stated) | – | – | inactive |
| O=C(O)CN(CCO)CCN(CC(=O)O)CC(=O)O.[Fe+2] | > 200 µM | > 200 µM | – |
| CC(C)CC(NC(=O)C(Cc1ccc(O)cc1)NC(=O)C(C)N)C(=O)NCC(=O)NC(CCCCN)C(=O)NC(CCCCN)C(=O)NC(C(=O)NC(C)C(=O)NC(C(=O)NC(CC(=O)O)C(=O)O)C(C)O)C(C)C (configuration not stated) (H-AYLGKKVATD-OH; configuration not given here) | – | – | inactive |

| Compound | EC50 | IC50 | outcome |
| --- | --- | --- | --- |
| CC12OC(=O)[C@@]3(O)CCC4C(C[C@H]5O[C@]56CC=CC(=O)[C@]46C)C45OC[C@H]6C(=O)O[C@@H]1C[C@@]6(C)[C@H](C4=O)C23O5 (some centres not stated) | > 200 µM | 0.398 µM | – |
| c1ccc(NC2(c3nnnn3C3CCCCC3)CCNCC2)cc1 | > 200 µM | 34.7 µM | – |
| Cc1cccc(C)c1N1C(=O)C(=O)C(c2nc3ccccc3s2)/C(=N/NC(=O)NN)C1=O (configuration not stated) | – | – | inactive |
| O=c1c2ccccc2nc2ccc3c(Cl)[nH][nH]c3c12 | – | – | inactive |
| CC1CC(c2ccccc2)=Nc2ccccc2S1 (configuration not stated) | > 14.1 µM | > 14.1 µM | – |
| CC1(C)CC(=O)C(CC2C(=O)CC(C)(C)CC2=O)C(=O)C1 | > 200 µM | > 200 µM | – |
| COc1ccc(N=Cc2c(O)ccc3c2oc2cc(Cl)c(O)c(Cl)c23)cc1 | > 200 µM | 2.95 µM | – |
| COc1ccc2c(c1)N(C)CCCC2=O | > 200 µM | 151 µM | – |
| Cc1noc(C)c1-n1nc2ccc3nonc3c2n1 | > 200 µM | > 200 µM | – |
| C/C(Cc1ccccc1)=N\NC(N)=S | – | – | inactive |
| Nc1nc(NCCOCP(=O)(O)O)c(N)c(=O)[nH]1 | > 200 µM | > 200 µM | – |
| O=C(O)c1ccc2nc(-c3ccccn3)c(-c3ccccn3)nc2c1 | > 200 µM | > 200 µM | – |
| Cc1cc(N(CCC#N)CCC#N)ccc1N=Nc1ccc(Br)cc1 | > 6.92 µM | > 6.92 µM | – |
| C/C=N\n1c(C)n[nH]c1=O | > 200 µM | > 200 µM | – |
| C=CC1CN2CCC1C/C2=N\O (configuration not stated) | – | – | inactive |
| COC(=O)C(Cc1ccccc1)NC(=O)Cn1ccnc1[N+](=O)[O-] (configuration not stated) | > 759 µM | 132 µM | – |
| CCC(=O)N(c1ccccc1)C(C)CN1CCC(O)(c2cccc(C(F)(F)F)c2)CC1 (configuration not stated) | > 200 µM | 74.1 µM | – |
| O=C1/C(=C/c2ccc(Cl)cc2)Cc2ccccc21 | > 5.62 µM | > 5.62 µM | – |
| O=P(Nc1ccccc1)(Nc1ccccc1)Nc1ccccc1 | > 155 µM | 141 µM | – |
| CN[C@@H]1[C@H](O)[C@H](NC)[C@H]2O[C@@]3(O)C(=O)C[C@@H](C)O[C@H]3O[C@@H]2[C@H]1O | > 200 µM | > 200 µM | – |
| O=C1C[C@@H]2[C@@H](CCC23CC3)N1 | > 1660 µM | > 1660 µM | – |
| Cc1cn(C2C[C@@H]3C(COC(c4ccc([N+](=O)[O-])cc4)N3O)O2)c(=O)[nH]c1=O (some centres not stated) | > 200 µM | > 200 µM | – |
| COc1ccc(CNc2nc3ccccc3nc2C(=O)O)cc1 | > 200 µM | 34.7 µM | – |

| Compound | EC50 | IC50 | outcome |
| --- | --- | --- | --- |
| COCCN1CC(=O)N2Cc3ccccc3CN2C(=O)C1 | – | > 200 µM | inactive |
| CS(=O)(=O)CCOC(=O)ON1C(=O)CCC1=O | > 200 µM | 26.9 µM | – |
| CC(C)CCCC(C)[C@H]1CCC2C3C/C(=C\C#N)[C@H]4CCCC[C@]4(C)C3CC[C@@]21C (some centres not stated) | > 100 µM | > 100 µM | – |
| O=C1/C(=C/c2cccc([N+](=O)[O-])c2)COc2ccccc21 | > 12.9 µM | 1.51 µM | – |
| Cc1ccccc1NC(=O)CSc1nnc(-c2ccc(N=Cc3ccc(Cl)cc3)cc2)o1 | > 389 µM | 5.62 µM | – |
| CCN(CC)C(C)C(=O)Nc1cccc(Cl)c1C (configuration not stated) | > 50.1 µM | > 50.1 µM | – |
| Cn1c(=O)[nH]c(=O)c2[nH]c(=O)c(=O)n(C)c21 | > 200 µM | > 200 µM | – |
| Cn1c(C2CC(C)(C)c3c2c2ccccc2n3C)cc2ccccc21 (configuration not stated) | > 21.9 µM | > 21.9 µM | – |
| Cc1ccc(S(=O)(=O)Oc2nc3nc4ccccc4nc3nc2OS(=O)(=O)c2ccc(C)cc2)cc1 | > 200 µM | 102 µM | – |
| Cc1c2c(n(CCc3ccc(Cl)cc3)c1C)NN=C(C#N)S2(=O)=O | > 200 µM | 85.1 µM | – |
| CCCCCCc1nn2c(-c3ccc(C)cc3)nnc2s1 | > 200 µM | > 200 µM | – |
| CCOc1ccc(N=Nc2ccc(N)cc2N)cc1 | > 200 µM | 107 µM | – |
| CCC[CH2][Ge]([CH2]CCC)([CH2]CCC)[O]C(=O)C(OC)c1ccccc1 (configuration not stated) | > 151 µM | 7.41 µM | – |
| CCCNC(=O)NS(=O)(=O)c1ccc(Cl)cc1 | – | – | inactive |
| N#CC1=C(N2CCOCC2)CCC1 | > 200 µM | > 200 µM | – |
| Cc1c(-c2ccccc2)c(=O)oc2ccc(Cl)cc12 | – | – | inactive |
| COc1ccc2c(c1)OC[C@@H]1c3cc(O)c(OCc4ccccc4)cc3O[C@]21C | > 200 µM | 24 µM | – |
| Cc1c(C2Cc3ccccc3N2C(=O)/C=C\C(=O)O)c2ccccc2n1C (configuration not stated) | > 692 µM | 14.5 µM | – |
| O=C1N(CO)C2C(N1CO)N(CO)C(=O)N2CO (configuration not stated) | > 200 µM | 33.1 µM and 102 µM | – |
| O=S(=O)(O)c1cc(N=Nc2ccc(S(=O)(=O)c3ccc(N=Nc4cc(S(=O)(=O)O)c5cccnc5c4O)cc3)cc2)c(O)c2ncccc12 | 6.03 µM | 39.8 µM | – |
| Cc1cc(NCCO)nc2c1ccc1ccccc12 | > 141 µM | 22.4 µM | – |
